Usually EC50 stands for the concentration needed to bring the measured effect to its halfway point. For orientation: IC50 means the point on the concentration scale where inhibition reaches its midpoint. What is called AC50 is the concentration at which the activity in the assay is half-maximal.

For test [1], the target named is Muscarinic acetylcholine receptor M1 (Rattus norvegicus, UniProt P08482). Nature of the test: concentration-dependent potentiation of ACh at M1 – cell-based, calcium mobilization, CHO-K1, ACh EC20, dose response (AID 2425). The format is functional. For orientation: Calcium flux is commonly read through the fluorescence of an indicator in the cells.
The nature of test [2]: microbe, parasite or virus in culture. The format is functional. Particulars: Mycobacterium tuberculosis.
A short description of test [3]: M. tuberculosis growth inhibition, HTS (AID 449762). The format is functional.
Another test has as its target Ephrin type-A receptor 4 (Mus musculus, UniProt Q03137). Nature of the test: EphA4 ligand-binding antagonists – biochemical, colorimetric, mouse EphA4, primary screen (AID 689). The format is functional.
Test [4] addresses T1, Tyrosine-protein phosphatase non-receptor type 7 (Homo sapiens, UniProt P35236).
T1 sequence (P35236 whole entry): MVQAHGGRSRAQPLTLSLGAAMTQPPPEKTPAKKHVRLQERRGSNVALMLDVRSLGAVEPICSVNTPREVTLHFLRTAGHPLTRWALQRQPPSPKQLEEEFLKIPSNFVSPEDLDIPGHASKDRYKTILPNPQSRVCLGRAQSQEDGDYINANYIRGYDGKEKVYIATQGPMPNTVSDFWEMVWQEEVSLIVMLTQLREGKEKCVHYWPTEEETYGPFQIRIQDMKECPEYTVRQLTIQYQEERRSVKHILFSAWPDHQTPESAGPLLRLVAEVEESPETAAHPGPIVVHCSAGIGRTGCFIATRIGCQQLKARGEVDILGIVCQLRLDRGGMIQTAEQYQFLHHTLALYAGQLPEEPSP
Kind of test: redox-active compounds inhibiting HePTP phosphatase – biochemical, fluorescence, mechanism study (AID 2068). The format is functional.

In test [5] the target is T2, Induced myeloid leukemia cell differentiation protein Mcl-1 (Homo sapiens, UniProt Q07820). The format is functional.
The target of the next test is Estrogen receptor beta (Homo sapiens, UniProt Q92731). Nature of the test: blockers of SRC-3 recruitment to ERβ – biochemical, ELISA, streptavidin-HRP readout, orthogonal assay, confirmation (AID 1060).
Test [6] addresses E3 ubiquitin-protein ligase Mdm2 (Homo sapiens, UniProt Q00987). Kind of test: MDM2-luc reporter signal enhancers, multi-concentration potency testing, MDM2 ubiquitin-protein ligase inhibitor program, whole-cell format, luminescence detection, 384-well microplate (AID 1394).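 Note: MDM2 E3 inhibitors raise luminescence so EC50 is for signal enhancement.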 The format is functional.
Test [7] can be described thus: viability loss in HEK293T cells – cell-based, cherry-picks, cytotoxicity control for HIV Vif inhibitor project, dose response (AID 652208). The format is functional.
A short description of test [8]: reduction of Shn3 3'UTR-driven luciferase in osteoblasts – cell-based, Clone20 osteoblasts, firefly luciferase, cherry-picked, dose response (AID 624132).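 Note: firefly luciferase luminescence from reporter carrying the Shn3 3'UTR in osteoblasts.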 The format is functional.
The nature of test [9]: non-specific 3'UTR reporter inhibition in Clone20-Shn3RL – cell-based, Renilla luciferase, cherry-picked, counter-screen for Shn3 inhibitor project, dose response (AID 624133). The format is functional.
Test [10] concerns the target T2, Induced myeloid leukemia cell differentiation protein Mcl-1. Nature of the test: blockers of MCL1 binding to BIM peptide – biochemical, fluorescence polarization, BIM-BH3 peptide, 1536-well, dose response (AID 2217). Background: In fluorescence polarisation assays a small probe gives low polarisation when free and higher when bound to something large.
The target in another test is Caspase-8 (Homo sapiens, UniProt Q14790). Nature of the test: inhibitors of purified CASP8 protease – biochemical, Z-IETD-R110 fluorescence, cherry-picked samples, selectivity assay for caspase-6 inhibitor project, dose response (AID 743294).
A further test deals with Protein Tat (Human immunodeficiency virus type 1 group M subtype B (isolate HXB2)(HIV-1), UniProt P04608). The format is functional.
The target of the next test is Bcl-2-like protein 1 (Homo sapiens, UniProt Q07817). Kind of test: blockers of BCLXL peptide binding – biochemical, fluorescence polarization, 1536-well, selectivity assay for MCL1 inhibitor project, dose response (AID 2218).
In the next test the target is T3, Caspase-6 (Homo sapiens, UniProt P55212).
T3 sequence (P55212 whole entry): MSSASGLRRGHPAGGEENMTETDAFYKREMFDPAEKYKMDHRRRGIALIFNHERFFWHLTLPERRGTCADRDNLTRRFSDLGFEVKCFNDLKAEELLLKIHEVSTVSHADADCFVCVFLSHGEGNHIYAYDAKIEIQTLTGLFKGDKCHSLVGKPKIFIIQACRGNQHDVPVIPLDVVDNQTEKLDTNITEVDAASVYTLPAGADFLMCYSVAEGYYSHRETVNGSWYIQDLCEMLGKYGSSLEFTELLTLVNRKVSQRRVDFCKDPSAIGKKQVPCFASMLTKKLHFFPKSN
Nature of the test: inhibition of CASP6 peptide cleavage – biochemical, VEID-R110 fluorescence, cherry-pick, dose response (AID 720632).

Test [11] has as its target T4, Carboxy-terminal domain RNA polymerase II polypeptide A small phosphatase 1 (Homo sapiens, UniProt Q9GZU7).
T4 sequence (Q9GZU7 whole entry): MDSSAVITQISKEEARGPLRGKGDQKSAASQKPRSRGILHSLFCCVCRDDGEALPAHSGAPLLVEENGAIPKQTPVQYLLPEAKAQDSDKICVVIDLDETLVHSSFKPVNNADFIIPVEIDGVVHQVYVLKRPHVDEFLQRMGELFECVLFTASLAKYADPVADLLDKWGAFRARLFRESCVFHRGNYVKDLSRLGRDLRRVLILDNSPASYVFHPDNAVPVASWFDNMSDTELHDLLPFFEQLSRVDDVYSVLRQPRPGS
Nature of the test: CTDSP1 inhibitors, concentration-response, biochemical, absorbance readout, ultra-high-throughput screen actives (AID 540297). The format is functional.

The target in another test is Caspase-7 (Homo sapiens, UniProt P55210). Kind of test: caspase-7 enzyme inhibition, selectivity check – biochemical, DEVD-R110 fluorescence, cherry-pick, selectivity assay for caspase-6 inhibitor project, dose response (AID 743295). The format is functional.
Test [12] addresses T5, Beta-2 adrenergic receptor (Homo sapiens, UniProt P07550). Nature of the test: Dose response for HTS for Beta-2AR agonists via FAP method from Powderset1. The format is functional.
The target of test [13] is T5, Beta-2 adrenergic receptor. Kind of test: ADRB2 activation measured by internalization – cell-based, FAP fluorogen, flow cytometry, cherry pick 1, dose response (AID 588763). The format is functional. On the technique in general: Flow cytometry measures light scatter and fluorescence of single cells or particles in a stream.
Test [14] addresses T1, Tyrosine-protein phosphatase non-receptor type 7. Kind of test: HePTP tyrosine phosphatase activity blockers – biochemical, absorbance, leukemia target, primary screen (AID 521). The format is functional.
A further test deals with NADPH oxidase 1 (Homo sapiens, UniProt Q9Y5S8). Nature of the test: Late-stage luminescence-based cell-based dose response assay to identify inhibitors of NADPH oxidase 1 (NOX1): Purchased analogs 2. The format is functional.

Values joined by “and” are separate entries in the source; they are usually repeats but may differ in a detail not shown here. Equal entries are not always repeated. Active and inactive are the calls of the source.

T5 sequence (P07550 whole entry): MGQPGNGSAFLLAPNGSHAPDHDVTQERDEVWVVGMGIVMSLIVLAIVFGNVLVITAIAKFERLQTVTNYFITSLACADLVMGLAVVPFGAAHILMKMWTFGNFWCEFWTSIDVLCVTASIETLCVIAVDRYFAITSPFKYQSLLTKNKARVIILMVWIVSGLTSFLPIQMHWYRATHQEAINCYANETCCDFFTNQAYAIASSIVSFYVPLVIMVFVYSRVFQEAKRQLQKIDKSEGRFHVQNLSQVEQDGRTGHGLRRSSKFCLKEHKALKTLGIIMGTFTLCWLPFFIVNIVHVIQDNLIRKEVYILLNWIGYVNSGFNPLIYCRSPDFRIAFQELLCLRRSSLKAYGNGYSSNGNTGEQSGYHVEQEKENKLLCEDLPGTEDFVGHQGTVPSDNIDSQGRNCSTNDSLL
T2 sequence (Q07820 whole entry): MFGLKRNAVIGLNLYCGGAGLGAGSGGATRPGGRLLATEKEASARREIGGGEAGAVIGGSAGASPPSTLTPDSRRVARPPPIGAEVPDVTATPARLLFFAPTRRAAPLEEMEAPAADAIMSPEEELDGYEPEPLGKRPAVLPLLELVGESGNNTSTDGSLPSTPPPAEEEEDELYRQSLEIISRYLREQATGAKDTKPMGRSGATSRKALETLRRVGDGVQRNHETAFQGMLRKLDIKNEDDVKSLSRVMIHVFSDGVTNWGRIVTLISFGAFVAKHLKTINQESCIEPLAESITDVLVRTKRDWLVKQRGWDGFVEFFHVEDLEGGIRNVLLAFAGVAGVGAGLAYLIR
Sequence of Caspase-7 (P55210 24-198 limits assumed): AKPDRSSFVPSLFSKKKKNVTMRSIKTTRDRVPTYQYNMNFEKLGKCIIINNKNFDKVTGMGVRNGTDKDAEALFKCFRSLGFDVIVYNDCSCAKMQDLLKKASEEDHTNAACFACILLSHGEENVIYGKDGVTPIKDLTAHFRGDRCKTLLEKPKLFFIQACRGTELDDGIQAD
Sequence of Caspase-7 (P55210 207-303 limits assumed): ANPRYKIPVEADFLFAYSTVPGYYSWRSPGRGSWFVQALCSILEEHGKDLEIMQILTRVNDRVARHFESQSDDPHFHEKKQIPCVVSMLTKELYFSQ
Sequence of Caspase-8 (Q14790 217-374 limits assumed): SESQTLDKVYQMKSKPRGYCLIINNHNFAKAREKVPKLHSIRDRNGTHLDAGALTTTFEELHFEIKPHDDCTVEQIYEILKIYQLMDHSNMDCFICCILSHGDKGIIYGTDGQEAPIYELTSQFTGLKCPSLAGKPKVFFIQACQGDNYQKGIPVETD
Sequence of Caspase-8 (Q14790 385-479 limits assumed): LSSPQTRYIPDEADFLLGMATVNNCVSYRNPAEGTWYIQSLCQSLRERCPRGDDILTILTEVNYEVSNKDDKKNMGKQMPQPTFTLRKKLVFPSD
Sequence of Ephrin type-A receptor 4 (Q03137 whole entry): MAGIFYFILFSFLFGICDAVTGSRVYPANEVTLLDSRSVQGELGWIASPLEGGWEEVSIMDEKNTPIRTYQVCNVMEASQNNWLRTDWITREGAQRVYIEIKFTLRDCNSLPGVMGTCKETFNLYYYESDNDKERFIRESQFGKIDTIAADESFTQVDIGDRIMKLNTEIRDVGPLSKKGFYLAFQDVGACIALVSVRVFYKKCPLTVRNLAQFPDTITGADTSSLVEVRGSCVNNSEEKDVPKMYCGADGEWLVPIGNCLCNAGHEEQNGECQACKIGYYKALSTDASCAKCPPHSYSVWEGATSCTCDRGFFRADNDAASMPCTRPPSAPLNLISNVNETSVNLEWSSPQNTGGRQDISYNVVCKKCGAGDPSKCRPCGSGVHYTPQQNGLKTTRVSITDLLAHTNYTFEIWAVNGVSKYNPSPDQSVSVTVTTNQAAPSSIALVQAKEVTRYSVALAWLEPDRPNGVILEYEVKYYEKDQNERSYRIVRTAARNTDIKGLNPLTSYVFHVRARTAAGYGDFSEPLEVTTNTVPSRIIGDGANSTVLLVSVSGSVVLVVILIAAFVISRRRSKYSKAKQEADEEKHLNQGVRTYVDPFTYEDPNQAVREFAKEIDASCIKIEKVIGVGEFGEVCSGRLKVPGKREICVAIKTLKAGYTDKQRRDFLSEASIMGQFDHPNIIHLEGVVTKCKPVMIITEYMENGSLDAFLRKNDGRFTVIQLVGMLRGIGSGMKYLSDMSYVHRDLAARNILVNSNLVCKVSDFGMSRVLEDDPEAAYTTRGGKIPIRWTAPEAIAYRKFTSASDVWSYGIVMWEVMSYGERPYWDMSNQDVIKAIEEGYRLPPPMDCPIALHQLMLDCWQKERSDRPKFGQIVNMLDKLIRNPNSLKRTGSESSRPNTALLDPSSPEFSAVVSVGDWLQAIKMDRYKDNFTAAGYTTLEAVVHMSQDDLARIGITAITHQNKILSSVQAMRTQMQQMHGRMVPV
Sequence of NADPH oxidase 1 (Q9Y5S8 whole entry): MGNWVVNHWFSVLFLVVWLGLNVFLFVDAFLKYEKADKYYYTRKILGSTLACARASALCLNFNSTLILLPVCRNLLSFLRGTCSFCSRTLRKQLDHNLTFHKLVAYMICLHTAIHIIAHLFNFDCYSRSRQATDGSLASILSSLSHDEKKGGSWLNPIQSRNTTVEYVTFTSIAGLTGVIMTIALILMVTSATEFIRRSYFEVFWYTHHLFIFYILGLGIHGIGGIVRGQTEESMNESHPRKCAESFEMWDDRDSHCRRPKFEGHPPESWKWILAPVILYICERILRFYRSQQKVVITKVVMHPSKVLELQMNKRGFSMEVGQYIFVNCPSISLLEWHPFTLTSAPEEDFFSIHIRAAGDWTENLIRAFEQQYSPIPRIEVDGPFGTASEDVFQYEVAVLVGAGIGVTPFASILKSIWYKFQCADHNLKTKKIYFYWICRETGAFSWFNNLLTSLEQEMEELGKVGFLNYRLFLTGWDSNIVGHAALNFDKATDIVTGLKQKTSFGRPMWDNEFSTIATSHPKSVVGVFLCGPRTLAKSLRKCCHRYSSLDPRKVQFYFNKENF
Sequence of Protein Tat (P04608 whole entry): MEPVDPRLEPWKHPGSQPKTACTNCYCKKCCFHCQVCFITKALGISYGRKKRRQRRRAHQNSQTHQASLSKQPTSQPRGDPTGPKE
Sequence of Bcl-2-like protein 1 (Q07817 whole entry): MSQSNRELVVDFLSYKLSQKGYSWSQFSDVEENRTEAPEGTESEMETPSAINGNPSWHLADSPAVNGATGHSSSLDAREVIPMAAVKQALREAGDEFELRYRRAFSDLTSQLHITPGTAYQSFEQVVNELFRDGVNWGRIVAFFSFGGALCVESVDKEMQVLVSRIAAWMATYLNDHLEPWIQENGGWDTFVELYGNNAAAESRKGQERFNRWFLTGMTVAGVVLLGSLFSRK
Sequence of Muscarinic acetylcholine receptor M1 (P08482 whole entry): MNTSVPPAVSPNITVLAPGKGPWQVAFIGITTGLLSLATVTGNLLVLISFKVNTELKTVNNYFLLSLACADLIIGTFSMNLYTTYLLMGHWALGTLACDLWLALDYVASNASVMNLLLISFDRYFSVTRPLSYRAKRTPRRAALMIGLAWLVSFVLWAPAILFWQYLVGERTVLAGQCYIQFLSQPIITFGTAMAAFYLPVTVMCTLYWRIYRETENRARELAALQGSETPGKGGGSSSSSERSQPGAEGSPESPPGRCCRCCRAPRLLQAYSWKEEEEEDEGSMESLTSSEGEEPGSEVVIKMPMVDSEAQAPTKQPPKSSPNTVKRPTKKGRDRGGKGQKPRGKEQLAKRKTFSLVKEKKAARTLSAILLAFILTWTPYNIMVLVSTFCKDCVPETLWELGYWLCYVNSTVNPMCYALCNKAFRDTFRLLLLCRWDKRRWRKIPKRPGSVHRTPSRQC
Sequence of Estrogen receptor beta (Q92731 whole entry): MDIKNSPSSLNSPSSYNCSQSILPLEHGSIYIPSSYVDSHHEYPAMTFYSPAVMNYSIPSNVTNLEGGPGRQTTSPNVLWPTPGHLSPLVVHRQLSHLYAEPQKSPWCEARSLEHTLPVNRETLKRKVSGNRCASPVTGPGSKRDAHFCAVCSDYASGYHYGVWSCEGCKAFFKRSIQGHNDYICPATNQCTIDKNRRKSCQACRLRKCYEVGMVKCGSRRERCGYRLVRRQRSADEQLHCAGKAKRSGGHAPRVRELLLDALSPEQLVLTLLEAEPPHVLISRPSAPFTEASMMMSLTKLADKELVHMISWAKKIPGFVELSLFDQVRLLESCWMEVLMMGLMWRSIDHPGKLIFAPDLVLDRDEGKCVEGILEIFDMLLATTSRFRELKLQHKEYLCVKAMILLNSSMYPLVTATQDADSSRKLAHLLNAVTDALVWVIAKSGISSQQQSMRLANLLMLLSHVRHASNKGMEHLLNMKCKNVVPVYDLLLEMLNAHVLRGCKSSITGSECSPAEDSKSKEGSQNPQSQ
Sequence of E3 ubiquitin-protein ligase Mdm2 (Q00987 whole entry): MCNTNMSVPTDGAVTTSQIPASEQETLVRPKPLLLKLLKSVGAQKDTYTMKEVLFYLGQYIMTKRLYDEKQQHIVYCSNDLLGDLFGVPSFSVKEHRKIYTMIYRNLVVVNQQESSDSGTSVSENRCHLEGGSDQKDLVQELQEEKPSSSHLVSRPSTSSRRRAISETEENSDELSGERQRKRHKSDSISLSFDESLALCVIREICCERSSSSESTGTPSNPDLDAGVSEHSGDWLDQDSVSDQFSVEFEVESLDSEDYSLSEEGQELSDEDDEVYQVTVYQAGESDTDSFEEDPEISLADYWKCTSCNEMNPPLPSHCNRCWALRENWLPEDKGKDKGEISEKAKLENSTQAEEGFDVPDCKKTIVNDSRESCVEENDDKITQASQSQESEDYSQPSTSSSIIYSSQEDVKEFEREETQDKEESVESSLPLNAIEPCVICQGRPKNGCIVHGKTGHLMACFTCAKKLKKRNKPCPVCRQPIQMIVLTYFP

For `Cn1cc(-c2ccc(CN3C(=O)C(=O)c4ccccc43)c(F)c2)cn1`, in test [1], the EC50 was 0.845 µM (active).
`O=C(CSc1n[nH]c(-c2ccccc2)n1)Nc1ccc(Br)cn1`: in test [2], the CC50 is > 40 µM (active). In addition, the IC50 in [3] was > 100 µM (active).
`O=C(NCc1ccccc1)c1ccc2nc(-c3ccco3)c(-c3ccco3)nc2c1`: the IC50 at Ephrin type-A receptor 4 was 11.1 µM (active); in test [4], 3.99 µM (active); in test [5], 4.26 µM (active); against Estrogen receptor beta, < 0.023 µM (not active).
Turning to `COc1ccc(-c2cc(C(F)(F)F)nc(S(=O)(=O)CCCC(=O)Nc3cccnc3Cl)n2)cc1OC`, the EC50 in [6] is given as 25 µM (not active). For the same compound, the AC50 in test [7] was 11.6 µM (active); in test [8] it was 3.17 µM (active); in [9], 13.8 µM (active).
As to `Cc1ccc(C)c(NC(=O)CN(C)C(=O)c2cccc(-n3cccc3)c2)c1`, the IC50 was 10.9 µM (not active) in test [10], > 100 µM (active) at Protein Tat, > 109 µM (not active) at Bcl-2-like protein 1 and 6.04 µM (active) in test [11]. In addition, the AC50 was > 70 µM (inactive) on Caspase-8, 4.58 µM (active) at Caspase-6 and > 70 µM (inactive) on Caspase-7.
For `Cc1ccc(OCC(=O)Nc2ccc(-c3nc4ncccc4o3)cc2)cc1`, the 50% effective concentration (EC50) in test [12] is 0.0155 µM (active); in [13], 31.6 nM (active) and 61.1 nM (active). Moreover, the IC50 in test [14] is given as > 100 µM (not active).
`CN(CCO)c1ccc(/C=N/Nc2c(F)c(F)nc(F)c2F)cc1`: the IC50 on NADPH oxidase 1 is 1.11 µM (active).

For the origin of these results see ChEMBL document CHEMBL1201862, “PubChem BioAssay data set” (2004).
